Numbers after ± are expanded uncertainties.
Settings: Crystal; DTA

Nc1ccc(O)c(C(=O)O)c1 [5-aminosalicylic acid]
Normal melting temperature: 281.00 ± 0.5 °C
